Data published in US20220332695A1, “UREA DERIVATIVES AS CB1 ALLOSTERIC MODULATORS” (RTI INTERNATIONAL, priority 2019, published 2022).
Several values for one entry are separate records, joined by “and”; a condition that tells them apart may be missing. Identical values can stand only once. Like-named read-outs stand apart in the source and are kept apart here.

Tests used:
mouse CB1R = molecular target: T1, mouse CB1R (Mus musculus, UniProt P47746); experiment: [35S]GTPγS binding assay in mouse cerebellum membranes; type: biochemical; settings: for IC50: mouse cerebellum membrane, read-out: mCB1R GTPγS IC50
T1 construct: membranes (10 μg protein) from either ICR mouse cerebellum mice; from tissue; host or cells: cerebellum membranes of ICR mice
T1 sequence (P47746 whole entry): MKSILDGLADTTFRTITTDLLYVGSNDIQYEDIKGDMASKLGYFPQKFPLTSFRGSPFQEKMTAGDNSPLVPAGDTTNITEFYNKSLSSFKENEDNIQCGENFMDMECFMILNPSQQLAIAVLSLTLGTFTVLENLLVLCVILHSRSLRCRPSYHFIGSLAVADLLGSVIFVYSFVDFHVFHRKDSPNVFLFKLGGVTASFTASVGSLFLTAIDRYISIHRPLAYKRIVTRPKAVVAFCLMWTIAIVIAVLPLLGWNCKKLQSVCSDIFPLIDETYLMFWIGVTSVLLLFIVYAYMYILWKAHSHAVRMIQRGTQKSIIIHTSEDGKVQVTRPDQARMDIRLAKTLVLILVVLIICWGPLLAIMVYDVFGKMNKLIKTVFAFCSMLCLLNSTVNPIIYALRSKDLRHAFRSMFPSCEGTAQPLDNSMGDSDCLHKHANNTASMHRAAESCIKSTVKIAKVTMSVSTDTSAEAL
Description: (§1) [^35S]GTPγS Binding Assay: For receptor signaling, membranes (10 μg protein) from either ICR mouse cerebellum mice (6-8 weeks old; Enviga
(§2) Non-specific binding was determined by adding 30 μM unlabeled GTPyS. Concentration response curves for allosteric modulators were conducted in the presence of CP55,940 (100 nM or 1 μM) to calculate 1050 values.
(§3) For [^35S]GTPyS experiments, data were normalized to maximal CP55,940 (100 nM) stimulation in the absence of test compound (i.e., vehicle=100%).
Select compounds were evaluated in the CP55,940-induced [^35S]GTPyS binding assays using mouse cerebellum membrane at two CP55,940 concentrations, 100 nM and 1μM.

[1] = Metabolic stability in rat liver microsomes; type: in vitro ADME
Description: Metabolic stability assessment: Compounds were incubated with rat liver microsomes at 37° C. for a total of 45 minutes. The reaction was performed at pH 7.4 in 100 mM potassium phosphate buffer containing 0.5 mg/mL of rat liver microsomal protein. Phase I metabolism was assessed by adding NADPH to a final concentration of 1 mM and collecting samples at time points 0, 5, 15, 30 and 45 minutes. All collected samples were quenched 1:1 with ice-cold stop solution (1 μM labetalol and 1 μM glyburide in acetonitrile) and centrifuged to remove precipitated protein. Resulting supernatants were further diluted 1:4 with acetonitrile:water (1:1). Samples were analyzed by LC/MS/MS and calculations for half-life, and in-vitro clearance were accomplished using Microsoft Excel (2007).

[2] = Kinetic solubility assessment; type: physicochemical; settings: aqueous buffer, kinetic from dmso stock, phosphate buffer, 2 hours room temperature
Description: The solution was agitated on a VX-2500 multi-tube vortexer (VWR International, Radnor, Pa., United States of America) for 2 hours at room temperature. Following agitation, the sample was filtrated on a glass-fiber filter (1 μm) and the eluate was diluted 400-fold with a mixture of acetonitrile: water (1:1). On each experimental occasion, nicardipine and imipramine were assessed as reference compounds for low and high solubility, respectively. All samples were assessed in triplicate and analyzed by LC-MS/MS using electrospray ionization against standards prepared in the same matrix.

MDCK-MDR1 cells = experiment: Bidirectional MDCK-MDR1 permeability assay; type: in vitro ADME; settings: MDCK-MDR1, 10 μM test article
Description: Permeability Assessment. Bidirectional MDCK-MDR1 permeability assay was performed by Paraza Pharma Inc. (Montreal, Canada). MDCK-mdr1 cells at passage 5 were seeded onto permeable polycarbonate supports in 12-well Costar Transwell plates and allowed to grow and differentiate for 3 days. On day 3, culture medium (DMEM supplemented with 10% FBS) was removed from both sides of the transwell inserts and cells were rinsed with warm HBSS. After the rinse step, the chambers were filled with warm transport buffer (HBSS containing 10 mM HEPES, 0.25% BSA, pH 7.4) and the plates were incubated at 37° C. for 30 min prior to TEER (Trans Epithelial Electric Resistance) measurements.
The buffer in the donor chamber (apical side for A-to-B assay, basolateral side for B-to-A assay) was removed and replaced with the working solution (10 μM test article in transport buffer). The plates were then placed at 37° C. under light agitation. At designated time points (30, 60 and 90 min), an aliquot of transport buffer from the receiver chamber was removed and replenished with fresh transport buffer. Samples were quenched with ice-cold ACN containing internal standard and then centrifuged to pellet protein. Resulting supernatants are further diluted with 50/50 ACN/H2O (H2O only for Atenolol) and submitted for LC-MS/MS analysis. Reported apparent permeability (Papp) values were calculated from single determination.
Atenolol and propranolol were tested as low and […] permeability references.
The apparent permeability (Papp, measured in cm/s) of a compound is determined according to the following formula […]: […]
where dQ/dt is the net rate of appearance in the receiver compartment; A is the area of the Transwell measured in cm^2 (1.12 cm^2); Ci is the initial concentration of compound added to the donor chamber; and 60 is the conversion factor for minute to second.

hCB1R [3] = molecular target: T2, hCB1R (Homo sapiens, UniProt P21554); experiment: Calcium mobilization assay, antagonist mode against CP55,940; type: cell-based; parameters: expressed in transfected cells; host or cells: CHO-RD-HGA16 cells (parental line from Molecular Devices); settings: CHO cells expressing human CB1R; against CP55,940 (100 nM); mean ± SEM; read-out: hCB1R Calcium assay IC50
T2 sequence (P21554 whole entry): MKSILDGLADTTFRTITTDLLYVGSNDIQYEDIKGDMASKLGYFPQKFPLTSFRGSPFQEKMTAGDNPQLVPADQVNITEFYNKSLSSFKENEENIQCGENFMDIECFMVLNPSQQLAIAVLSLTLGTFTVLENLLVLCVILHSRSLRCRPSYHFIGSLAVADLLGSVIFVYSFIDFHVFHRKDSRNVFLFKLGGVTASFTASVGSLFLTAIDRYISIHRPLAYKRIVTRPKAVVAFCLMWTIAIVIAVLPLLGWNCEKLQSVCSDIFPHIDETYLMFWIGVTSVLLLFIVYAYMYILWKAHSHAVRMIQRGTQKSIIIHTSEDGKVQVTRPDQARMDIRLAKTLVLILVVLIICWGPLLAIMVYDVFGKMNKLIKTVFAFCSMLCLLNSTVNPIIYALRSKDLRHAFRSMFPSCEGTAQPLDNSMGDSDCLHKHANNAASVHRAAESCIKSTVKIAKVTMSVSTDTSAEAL
Description: Calcium Mobilization Assay: CHO-RD-HGA16 cells (Molecular Devices, San Jose, Calif., United States of America) stably expressing the human CB1 receptor were plated into 96-well black-walled assay plates at 25,000 cells/well in 100 pL of Ham's F12 (supplemented with 10% fetal bovine serum, 100 units of penicillin/streptomycin, and 100 µg/mL Normocin) and incubated overnight at 37° C., 5% CO2. Calcium 5 dye (Molecular Devices, San Jose, Calif., United States of America) was reconstituted according to the manufacturer's instructions. The reconstituted dye was diluted 1:40 in prewarmed (37° C.) assay buffer (1x HBSS, 20 mM HEPES, 2.5 mM probenecid, pH 7.4 at 37° C.). Growth medium was removed, and the cells were gently washed with 100 pL of prewarmed (37° C.) assay buffer. The cells were incubated for 45 min at 37° C., 5% CO2 in 200 pL of the diluted Calcium 5 dye solution. […] Serial dilutions of the test compounds were prepared at 10x the desired final concentration in 2.25% BSA/4.5% DMSO/4.5% EtOH/assay buffer. After the dye loading incubation period, the cells were pretreated with 25 pL of the test compound serial dilutions and incubated for 15 min at 37° C. After the pretreatment incubation period, the plate was read with a FLIPR Tetra (Molecular Devices, San Jose, Calif., United States of America). Calcium-mediated changes in fluorescence were monitored every 1 s over a 90 s time period, with the Tetra adding 25 pL of the CP55,940 EC80 concentration at the 10s time point (excitation/emission: 485/525 nm). Relative fluorescence units (RFU) were plotted against the log of compound concentrations. For agonist screens, the above procedure was followed except that cells were pretreated with 2.25% BSA/4.5% DMSO/4.5% EtOH/assay buffer and the Tetra added single concentration dilutions of the test compounds prepared at 10x the desired final concentration in 0.25% BSA/0.5% DMSO/0.5% EtOH/assay buffer. Test compound RFUs were compared to the CP55,940 Emax RFUs to generate % Emax values.
Data Analysis: For calcium mobilization experiments, data were fit to a three-parameter logistic curve to generate IC50 values (GraphPad Prism 6.0, Graphpad Software, San Diego, Calif., United States of America).

hCB1R [4] = molecular target: T2, hCB1R; experiment: [35S]GTPγS binding assay in HEK cells stably expressing human CB1R; type: biochemical; parameters: expressed in transfected cells; host or cells: HEK (HEK293) cells, membranes; settings: [CP] = 100 nM, mean (95% confidence interval), read-out: hCB1R [35S]GTPγS binding assay IC50
Description: as §1, §2, §3

hCB1R [5] = molecular target: T2, hCB1R; experiment: Intrinsic activity: basal [35S]GTPγS binding in the absence of CP55,940; type: biochemical; settings: up to 10 μM
hCB1R [6] = molecular target: T2, hCB1R; experiment: Real-time BRET CAMYEL cAMP assay in HEK293 cells expressing human CB1; type: cell-based; parameters: expressed in transfected cells; host or cells: HEK293 cells stably transfected with human CB1, transiently transfected with pcDNA3L-His-CAMYEL sensor; settings: for IC50: [CP] = 100 nM, forskolin-stimulated cAMP
Description: cAMP Assay: The cAMP assay was performed as previously described. […] Briefly, forskolin (FSK)-stimulated cyclic adenosine monophosphate (cAMP) production was measured in real-time using a transfected bioluminescence resonance energy transfer (BRET) cAMP sensor. The plasmid encodes a cAMP binding domain (Epac1) flanked by yellow fluorescent protein (YFP) and Renilla Luciferase (RLuc) assay, the latter of which can oxidize coelenterazine H and produce a photon as a byproduct. When cAMP is bound to the Epac1 domain, it separates RLuc and YFP so only Rluc emits a photon at a wavelength of 460 nm. When cAMP is not bound, RLuc can excite YFP, emitting light at wavelength 535 nm. A plate reader measures both wavelengths and their ratio, 460/535, is calculated to quantify cAMP levels where increases in the ratio indicate increases in cAMP. Human Embryonic Kidney 293 (HEK293) cells stably transfected with the human cannabinoid type-1 (C131) were maintained at 37° C. at 5% CO2 and seeded in 100 mM dishes for transfection. The next day, cells were given fresh growth media and transfected with 5 pg of pcDNA3L-His-CAMYEL using linear polyethyleneimine (25 kDa, Polysciences, Warrington, Pennsylvania, United States of America) in 1:6 DNA:PEI (ATCC, Manassas, Virginia, United States of America) ratio. The next day, cells were lifted using 1 mM EDTA in PBS and spun down at 200xg for 5 min. The supernatant was removed, and cells were resuspended in growth media and plated on poly-D-lysine (Sigma Aldrich, St. Louis, Missouri, United States of America) coated white 96 well plates at 60,000 cells per well, filling 2 columns of 8 wells each per plate, i.e. 8 samples in duplicate per plate (Perkin Elmer, Waltham, Massachusetts,
United States of America). The following day, media was removed, cells were rinsed with PBS and buffers/reagents/drugs added as following: At 0 min, 175 of stimulation buffer (5 mg/ml bovine serum albumin in HBSS including Ca^2+ and Mg^2+); at 10 min, 25 μL of allosteric modulators added; at 15 min: 25 μL coelenterazine added (5 μM final); at 25 min, 25 μL of forskolin (10 final) with or without CP55,940 (100 nM final) added. […] Ratio of 460/535 is calculated for each time point and plotted across time and area under the curve analysis is conducted for each replicate and averaged by condition/day where each day serves as an independent experiment. Data were calculated as %FSK using the formula [(sample-basal)/(forskolin-basal)×100]. IC50 values were calculated from these normalized concentration-response data using Prism 6 (Graphpad Software, San Diego, Calif., United States of America) using 3 parameter non-linear regression. Data are plotted as mean of at least N=3 independent experiments either normalized to forskolin (concentration response data) or the calculated 460/535 BRET ratio (time course data).

Structure (SMILES)	IC50 (mouse CB1R; [CP] = 100 nM)	IC50 (mouse CB1R; [CP] = 1 uM)	IC50 (hCB1R [3]) [nM]	IC50 (hCB1R [4]) [nM]	IC50 (hCB1R [6]) [nM]	further results
O=C(Nc1ccc(Cl)cc1)Nc1cccc(-c2cccc(N3CCCC3)n2)c1 [Compound 2, reference compound]	244 nM	127 nM	–	–	–	half-life ([1]; NADPH, mean ± SD): 13 min and 13.4 ± 4.1 min; Clearance ([1]; mean ± SD): 113.7 ± 34.4 µL/min/mg; solubility at 2 h [2]: < 0.5 µM; Papp A to B (MDCK-MDR1 cells): 2.6 ± 0 ×10^−6 cm/s; Papp B to A (MDCK-MDR1 cells): 2.2 ± 0.1 ×10^−6 cm/s
O=C(Nc1ccc(Cl)cc1)Nc1cc(-c2ccccc2)cs1 [Compound 12, 1-(4-Chlorophenyl)-3-(4-phenylthiophen-2-yl)urea]	–	–	37 ± 2	667	–	activity in [35S]GTPγS binding assay against mouse CB1R (in words) (mouse CB1R; compared with compound 2): weaker potency
O=C(Nc1ccc(Cl)cc1)Nc1ncc(-c2ccccc2)s1 [Compound 14, 1-(4-Chlorophenyl)-3-(5-phenyl-1,3-thiazol-2-yl)urea]	–	–	79 ± 10	604	–	inverse agonism (in words) (hCB1R [5]): some degree of inverse agonism
O=C(Nc1ccc(Cl)cc1)Nc1ccc(-c2ccc(F)cc2)s1 [Compound 18, 1-(4-Chlorophenyl)-3-[5-(4-fluorophenyl)thiophen-2-yl]urea]	174 nM	145 nM	40 ± 2	537	–	–
O=C(Nc1ccc(Cl)cc1)Nc1ccc(-c2ccc(F)cc2F)s1 [Compound 20, 1-(4-Chlorophenyl)-3-[5-(2,4-difluorophenyl)thiophen-2-yl]urea]	138 nM	48 nM	22 ± 4	84	2290	half-life ([1]; pH 7.4, NADPH, mean ± SD, read-out: Half-life): 72 min; microsomal CLint ([1]; pH 7.4, mean ± SD, read-out: Clearance): 19.3 ± 1.6 µL/min/mg; solubility at 2 h [2]: < 0.5 µM
O=C(Nc1ccc(Cl)cc1)Nc1ccc(-c2ccccc2Cl)s1 [Compound 21, 1-(4-Chlorophenyl)-3-[5-(2-chlorophenyl)thiophen-2-yl]urea]	363 nM	204 nM	21 ± 2	272	1190	inverse agonism in cAMP assay (hCB1R [6]; concentrations up to 10 μM): displayed inverse agonism
O=C(Nc1ccc(Cl)cc1)Nc1ccc(-c2cc(Cl)cc(Cl)c2)s1 [Compound 25, 1-(4-Chlorophenyl)-3-[5-(3,5-dichlorophenyl)thiophen-2-yl]urea]	3310 nM	2400 nM	92 ± 12	6330	> 10000	–
CC(=O)c1cccc(-c2ccc(NC(=O)Nc3ccc(Cl)cc3)s2)c1 [Compound 26, 3-[5-(3-Acetylphenyl)thiophen-2-yl]-1-(4-chlorophenyl)urea]	–	–	108 ± 17	3430	–	–
COC(=O)c1cccc(-c2ccc(NC(=O)Nc3ccc(Cl)cc3)s2)c1 [Compound 27, Methyl 3-(5-{[(4-chlorophenyl)carbamoyl]amino}thiophen-2-yl)benzoate]	–	–	345 ± 48	2350	–	–
CS(=O)(=O)c1cccc(-c2ccc(NC(=O)Nc3ccc(Cl)cc3)s2)c1 [Compound 28, 1-(4-Chlorophenyl)-3-[5-(3-methanesulfonylphenyl)thiophen-2-yl]urea]	–	–	501 ± 58	3230	–	–
COc1ccccc1-c1ccc(NC(=O)Nc2ccc(Cl)cc2)s1 [Compound 29, 1-(4-Chlorophenyl)-3-[5-(2-methoxyphenyl)thiophen-2-yl]urea]	–	–	58	2020	–	–
COc1cccc(-c2ccc(NC(=O)Nc3ccc(Cl)cc3)s2)c1 [Compound 30, 1-(4-Chlorophenyl)-3-[5-(3-methoxyphenyl)thiophen-2-yl]urea]	3020 nM	1620 nM	61	3280	6350	–
COc1ccc(-c2ccc(NC(=O)Nc3ccc(Cl)cc3)s2)cc1 [Compound 31, 1-(4-Chlorophenyl)-3-[5-(4-methoxyphenyl)thiophen-2-yl]urea]	110 nM	120 nM	31 ± 2	449	1850	–
Cc1cccc(-c2ccc(NC(=O)Nc3ccc(Cl)cc3)s2)c1 [Compound 32, 1-(4-Chlorophenyl)-3-[5-(3-methylphenyl)thiophen-2-yl]urea]	–	–	48 ± 8	1180	–	–
CN(C)c1cccc(-c2ccc(NC(=O)Nc3ccc(Cl)cc3)s2)c1 [Compound 33, 1-(4-Chlorophenyl)-3-{5-[3-(dimethylamino)phenyl]thiophen-2-yl}urea]	3470 nM	3310 nM	89 ± 14	5020	> 10000	–
O=C(Nc1ccc(Cl)cc1)Nc1ccc(-c2cccnc2)s1 [Compound 34, 1-(4-Chlorophenyl)-3-[5-(pyridin-3-yl)thiophen-2-yl]urea]	–	–	107 ± 6	298	–	–
O=C(Nc1ccc(Cl)cc1)Nc1ccc(-c2ccncc2)s1 [Compound 35, 1-(4-Chlorophenyl)-3-[5-(pyridin-4-yl)thiophen-2-yl]urea]	287 nM and 204 nM	129 nM and 120 nM	79 ± 13	298	1800	inverse agonism (in words) (hCB1R [5]): some degree of inverse agonism
